A word on the kinetic solubility: it is the concentration staying in solution when a stock, usually in DMSO, is diluted into the medium.

These results are taken from PubChem BioAssay AID1996.

≈ marks a conversion by molar mass, not a printed value.

For the data set the following is noted: buffer; pH 7.4; 200.0 µM.
Regarding `Cc1ccc([N+](=O)[O-])cc1NC(=O)C(C)N1CCCCC1` (centres undefined), the solubility (kinetic) was found to be 40.4 µg/mL (≈ 139 µM).

Regarding `N/C(=N/[N+](=O)[O-])N1CCN(C(=O)Oc2ccc([N+](=O)[O-])cc2)CC1`, the kinetic solubility is > 50.7 µg/mL. Compound `CCN1CCN(c2nc(Nc3ccc(OC)cc3)nc(N)c2[N+](=O)[O-])CC1` registered a solubility (kinetic) of 49.6 µg/mL (≈ 133 µM).

With `CCCCCNC(=O)C1c2ccccc2Oc2ccccc21`, the kinetic solubility was < 0.6 µg/mL.

`Cc1cnc(NC(=O)CC2CCCC2)s1` returned a kinetic solubility of 13.3 µg/mL (≈ 59.3 µM). In the case of `COc1cc(CN2CCCCCC2)cc(OC)c1OC.O=C(O)C(=O)O` it was > 55.4 µg/mL; in that of `Cc1ccsc1C(=O)N1CCc2ccccc2C1`, > 38.6 µg/mL; in that of `NC(=O)C1CCN(S(=O)(=O)c2ccc3c(c2)OCCO3)CC1`, > 49 µg/mL. Take `Cn1cnc(S(=O)(=O)Nc2ccc(OC(F)(F)F)cc2)c1`: the solubility (kinetic) is 39.7 µg/mL (≈ 124 µM). The compound `CC(OC(=O)c1ccc2ncsc2c1)C(=O)N1CCCC1` (centres undefined) showed a solubility (kinetic) of 39.4 µg/mL (≈ 129 µM). As to `O=C(COC(=O)c1cccc(C(F)(F)F)c1)NC(=O)NC1CCCC1`, the solubility (kinetic) stood at 5.2 µg/mL (≈ 14.5 µM). The compound `O=C(COC(=O)c1cccnc1Cl)c1ccc(OC(F)F)cc1` displayed a solubility (kinetic) of 51.2 µg/mL (≈ 150 µM).

The compound `CCOc1cccc(/C=C(\C#N)C(=O)NC2CC2)c1` yielded a solubility (kinetic) of 27.2 µg/mL (≈ 106 µM).

The compound `N#Cc1c(-c2ccc3c(c2)OCO3)cc[nH]c1=O` came in with a solubility (kinetic) of 2.3 µg/mL (≈ 9.57 µM).

As for `Cc1ccc(S(=O)(=O)N(C)C)cc1NC(=O)C1CCCCC1`, the kinetic solubility was > 48.7 µg/mL. As for `COc1ccc(C2NC(=O)CCC2[N+](=O)[O-])c(OC)c1OC` (centres undefined), the kinetic solubility was > 46.5 µg/mL. As to `COc1cc([N+](=O)[O-])ccc1NC(=O)N1CCCCCC1`, the kinetic solubility was 32.1 µg/mL (≈ 109 µM). For `Cc1cc2c(=O)oc(-c3ccc(Br)cc3)nc2s1`, the kinetic solubility is < 0.7 µg/mL. `Cc1cc(NC(=O)c2cc(S(=O)(=O)N3CCCCC3)ccc2C)no1` yielded a solubility (kinetic) of 14.2 µg/mL (≈ 39.1 µM).

`O=C(CSCc1ccccc1)Nc1ccccc1`: the solubility (kinetic) was > 38.6 µg/mL. For `Cc1ccc(C(=O)Oc2ccccc2N2CCOCC2)cc1`, the solubility (kinetic) stood at 4.9 µg/mL (≈ 16.5 µM).

In the case of `O=C(CN1CCCCC1)Nc1nc(-c2ccc(F)c(F)c2)cs1`, the kinetic solubility is 2 µg/mL (≈ 5.93 µM).

In the case of `CCCCNC(=O)c1ccccc1SCc1c(C)noc1C`, the solubility (kinetic) was > 47.8 µg/mL. Turning to `CC(C)(C)n1cnnc1Sc1ncccc1[N+](=O)[O-]`, the solubility (kinetic) is > 41.9 µg/mL.

Compound `c1ccc2c3c([nH]c2c1)C1(CCNCC1)NCC3` displayed a kinetic solubility of 34.7 µg/mL (≈ 144 µM). Turning to `CCCCOC(=O)C1=C(C)NC(=O)NC1c1ccccc1` (centres undefined), the solubility (kinetic) worked out at 13.5 µg/mL (≈ 46.8 µM). This solubility kinetic lies about 2.6-fold lower than the previous one.

`Cc1cc(Cl)ccc1OCC(=O)Nc1cccnc1` returned a solubility (kinetic) of 35.3 µg/mL (≈ 128 µM). This solubility kinetic is about 2.6-fold higher than that of the compound before. `Cc1ccc(NC(=O)C2CCCN(c3nccc(C)n3)C2)c(C)c1` (centres undefined) had a kinetic solubility of 2.2 µg/mL (≈ 6.78 µM). For the compound `N#CC1(NC(=O)Cn2cc(C(F)(F)F)ccc2=O)CCCC1`, the solubility (kinetic) is > 47 µg/mL. Consider `OCCN(CCO)c1ccc2ccccc2c1`, for which the solubility (kinetic) was > 34.7 µg/mL.

Consider `CC(C(=O)Nc1ccccn1)c1ccccc1` (centres undefined), for which the kinetic solubility is > 33.9 µg/mL. Compound `O=[N+]([O-])c1cccnc1Sc1ccc(Cl)cc1` showed a solubility (kinetic) of 0.7 µg/mL (≈ 2.62 µM). `Cc1cc(C(=O)COC(=O)/C=C/c2ccco2)c(C)n1C` showed a kinetic solubility of 12.9 µg/mL (≈ 44.9 µM).

On to `O=C(COc1ccc(F)cc1F)N1CCCCCCC1`, for which the solubility (kinetic) was > 42.5 µg/mL. In the case of `Cn1ccnc1SCC(=O)Nc1cccc(C#N)c1` it was > 40.8 µg/mL. In the case of `COc1ccc(/C=C/C(=O)O)cc1S(=O)(=O)NCc1cccnc1` it was > 52.3 µg/mL; in that of `O=C(CN1C(=O)COc2ccccc21)N1CCCC1`, > 39 µg/mL. `CCc1ccc(C(C)NC(=O)c2ccc3c(c2)OCO3)cc1` (centres undefined) registered a solubility (kinetic) of 1.6 µg/mL (≈ 5.38 µM). As for `CC1(C)Cc2c(sc3nc(SCC(=O)O)nc(N)c23)CO1`, the solubility (kinetic) was > 48.8 µg/mL. With `O=[N+]([O-])c1cccc2c(N3CCOCC3)ccnc12`, the solubility (kinetic) was > 38.9 µg/mL. For `O=C(CNS(=O)(=O)c1cccs1)N1CCCCC1`, the kinetic solubility is > 43.3 µg/mL. With `O=C(NCCN1CCOCC1)C(=O)c1c[nH]c2ccccc12`, the solubility (kinetic) was > 45.2 µg/mL. In the case of `COc1ccc(CN=Cc2c(C(=O)O)[nH]c3ccccc23)cc1` it was > 46.3 µg/mL; in that of `O=C(CC(=O)Nc1ccccc1F)Nc1ccccc1F`, > 43.5 µg/mL.

For the compound `Cn1c([O-])c(Cc2cccc(Cl)c2Cl)c(=O)n(C)c1=O.[NH4+]`, the kinetic solubility came to 43.6 µg/mL. For `N#Cc1sc(C(N)=O)c(-c2ccccc2)c1-c1ccccc1`, the solubility (kinetic) was < 0.3 µg/mL. On to `CN(C)S(=O)(=O)c1ccc(C(=O)/C=C/c2cccnc2)cc1`, for which the kinetic solubility was 3.3 µg/mL (≈ 10.4 µM).

Regarding `Cc1ccc2oc(C(=O)N(C)Cc3cnccn3)c(C)c2c1`, the solubility (kinetic) is > 44.3 µg/mL. As for `Cc1cc(C)c(C(=O)O)c(Cl)n1`, the figure is > 27.8 µg/mL.

As for `O=C(COc1ccccc1Cl)NCc1ccccc1`, the kinetic solubility was found to be 20.6 µg/mL (≈ 74.7 µM). As to `CCOC(=O)Cn1c(=O)cc(C)c2ccccc21`, the solubility (kinetic) was > 36.8 µg/mL. As for `COc1ccc(OC)c(Nc2nc(NCCC(C)C)nc(N)c2[N+](=O)[O-])c1`, the figure is < 0.1 µg/mL.

Compound `O=S(=O)(c1ccc(Cl)cc1)N1CCN(c2ncnc3sccc23)CC1` gave a solubility (kinetic) of 7 µg/mL (≈ 17.7 µM).

`Cc1ccc(NC(=O)CCN2CCC(Cc3ccccc3)CC2)cc1` gave a solubility (kinetic) of 22.6 µg/mL (≈ 67.2 µM). In turn, `CC(=O)c1cccc(NC(=O)COc2ccc3oc(=O)cc(C)c3c2)c1` displayed a solubility (kinetic) of 1.4 µg/mL (≈ 3.98 µM). As for `COc1ccc(OCC(O)CNC(=O)Nc2ccccc2)cc1` (centres undefined), the figure is 26.9 µg/mL (≈ 85 µM); as for `Cc1ccc2oc(=O)c(/C=C(\O)c3ccco3)nc2c1`, 31.7 µg/mL (≈ 118 µM).

`CC1CC(C)CN(C(C)C(=O)Nc2cc(S(=O)(=O)N3CCCCC3)ccc2Cl)C1` (centres undefined): the kinetic solubility was < 0.3 µg/mL. Consider `Cc1ccccc1NCc1ccc([N+](=O)[O-])s1`, for which the solubility (kinetic) is 13.7 µg/mL (≈ 55.2 µM).

With `Cc1cccc(OCc2nnc(SC(C)C(=O)Nc3ccc(N4CCOCC4)cc3)o2)c1` (centres undefined), the kinetic solubility was > 68.2 µg/mL. Turning to `CCCC(=O)Nc1ccc2oc(-c3cncc(Br)c3)nc2c1`, the kinetic solubility was found to be 0.6 µg/mL (≈ 1.67 µM). Consider `O=C(NCCc1csc(-c2ccccc2)n1)c1ccccc1F`, for which the kinetic solubility turned out to be 40.2 µg/mL (≈ 123 µM).

As to `COc1cc(S(=O)(=O)NCCCn2ccnc2)ccc1Cl`, the kinetic solubility was > 49.5 µg/mL. As to `COc1ccccc1NC(=O)N1CCCC1C(=O)NCc1cccs1` (centres undefined), the kinetic solubility was > 53.9 µg/mL. On to `CCCNC(=O)COc1ncnc2sccc12`, for which the kinetic solubility is > 37.7 µg/mL. `Cc1ccccc1C(=O)OCC(=O)NCc1ccco1`: the kinetic solubility was > 41 µg/mL. Take `CC(C)CCSc1nnc(N)s1`: the kinetic solubility is > 30.5 µg/mL. For the compound `COC(=O)C1=C(Nc2cc(Cl)cc(Cl)c2)CSC1`, the solubility (kinetic) was < 0.7 µg/mL. With `COc1cccc(C2(C)NC(=O)N(CC(=O)Nc3ccc(N4CCOCC4)cc3)C2=O)c1` (centres undefined), the solubility (kinetic) worked out at 57.7 µg/mL (≈ 132 µM). With `O=C(NCc1ccccc1Br)c1ccc2c(c1)OCCO2`, the kinetic solubility worked out at 11.6 µg/mL (≈ 33.3 µM). In the case of `Cc1cccc(NC(=O)CSCC(=O)NCc2ccco2)c1` it was > 47.8 µg/mL; in that of `CN(C)c1nc(N(C)C)nc(N(C#N)Cc2ccc(Cl)cc2)n1`, 0.3 µg/mL (≈ 0.904 µM). As for `O=C(CS(=O)(=O)c1ccccc1)Nc1ncc([N+](=O)[O-])s1`, the figure is > 49.1 µg/mL. Consider `O=C(C1CCC1)N1CCN(c2ccc(Cl)cc2)CC1`, for which the solubility (kinetic) came to 36.4 µg/mL (≈ 131 µM). For `CC(Oc1cccc(Cl)c1)C(=O)N1CCCN(C)CC1` (centres undefined), the kinetic solubility is > 44.5 µg/mL. In the case of `O=C(COc1ccccc1Cl)Nc1ccc2c(c1)OCO2` it was 1.2 µg/mL (≈ 3.93 µM). In the case of `CCOc1ccccc1NC(=O)c1ccc(OCC(=O)N2CCOCC2)c(OC)c1` it was > 62.2 µg/mL; in that of `Cc1nnc(NC(=O)CN2C(=O)NC3(CCCC3)C2=O)s1`, > 46.4 µg/mL. Consider `Cc1ccccc1C(=O)Nc1cccc(C(=O)Nc2ccccc2C(=O)O)c1`, for which the solubility (kinetic) is > 56.2 µg/mL. As for `CC(C)C(NC(=O)c1ccc(Cl)cc1Cl)C(=O)N1CCC1` (centres undefined), the figure is > 49.4 µg/mL. `CCCNC(=S)N1CCC(C(=O)c2ccc(Cl)cc2)CC1`: the kinetic solubility was 2.2 µg/mL (≈ 6.77 µM). Compound `COc1cccc(CN(C)CC2CCCN(CCc3ccc(Cl)cc3)C2)c1OC` (centres undefined) had a solubility (kinetic) of 53.3 µg/mL (≈ 128 µM). As for `CC(=O)Nc1c(-c2ccc(Cl)cc2)c(=O)c2ccccc2n1C`, the figure is 14.8 µg/mL (≈ 45.3 µM). In the case of `Oc1cccc(N2Cc3ccccc3C2)c1`, the solubility (kinetic) was found to be 13 µg/mL (≈ 61.5 µM). The solubility kinetic values of the last two compounds are within 1.5-fold of each other.

Compound `CSc1ncccc1C(=O)OCC(=O)Nc1cccc(S(=O)(=O)N2CCOCC2)c1` returned a kinetic solubility of 34.7 µg/mL (≈ 76.9 µM). As for `N#Cc1ccc(NC(=O)CN2C(=O)NC3(CCCC3)C2=O)cc1`, the figure is > 46.8 µg/mL. As to `COc1cccc(CC2(CO)CCN(Cc3cn(C)nc3C)CC2)c1`, the solubility (kinetic) is > 51.5 µg/mL. As for `COc1ccc(CCNC(=O)c2ccc(OC)c(OC)c2)cc1OC`, the figure is 39.6 µg/mL (≈ 115 µM). As for `O=C1Nc2ccccc2/C1=C\C(=O)c1ccccc1`, the kinetic solubility amounted to 5.1 µg/mL (≈ 20.5 µM). Compound `Cc1ccc(NC(=O)CC2NCCN(Cc3ccccc3)C2=O)cc1` (centres undefined) had a solubility (kinetic) of 43.6 µg/mL (≈ 129 µM). `O=c1c2[nH]c3ccc(F)cc3c2ncn1CCC1=CCCCC1`: the solubility (kinetic) was < 0.2 µg/mL. Take `CCC(C)c1ccc(S(=O)(=O)N2CCN(c3ccccn3)CC2)cc1` (centres undefined): the solubility (kinetic) was < 0.3 µg/mL. Take `O=C(Nc1cccc(C(=O)N2CCCc3ccccc32)c1)c1ccccc1`: the kinetic solubility was found to be 17.2 µg/mL (≈ 48.3 µM). As to `CCCc1cc(=O)[nH]c(SC/C=C/c2ccccc2)n1`, the kinetic solubility stood at 1.9 µg/mL (≈ 6.63 µM).

In the case of `CCNC(=O)C(C)NC(=O)C1=NN(c2ccccc2)C(=O)CC1` (centres undefined), the solubility (kinetic) was > 47.5 µg/mL.

In the case of `CC1CN(C(=O)COC(=O)c2cc3ccccc3cc2O)CC(C)O1` (centres undefined), the kinetic solubility came to 12.7 µg/mL (≈ 37 µM). In the case of `Cc1cccn2c(Nc3ccccc3)c(-c3ccccn3)nc12` it was 31.2 µg/mL (≈ 104 µM); in that of `O=c1oc2ccccc2n1Cc1ccccc1`, 8.6 µg/mL (≈ 38.2 µM). Regarding `COC(=O)[C@H](Cc1ccccc1)NC(=O)NCc1ccc(C)cc1`, the solubility (kinetic) was > 49 µg/mL.

Compound `COc1cccc(/C=C/c2ccc3cccc(O)c3n2)c1OC` registered a solubility (kinetic) of 1.2 µg/mL (≈ 3.9 µM). Regarding `O=C(O)CCC(=O)Nc1ccc(OCC2CCCO2)cc1` (centres undefined), the kinetic solubility came out at 43.8 µg/mL (≈ 149 µM).

Consider `Nc1ccccc1C(=O)NCCCN1CCN(c2cccc(Cl)c2)CC1`, for which the kinetic solubility was 12.9 µg/mL (≈ 34.6 µM). As for `COc1ccc2c(c1)C(=O)N(Cc1ccccc1)C(=O)C2(C)C`, the figure is 10.5 µg/mL (≈ 33.9 µM). In the case of `O=[N+]([O-])c1ccc(NC2CCCC2)c2ccncc12`, the kinetic solubility was 3 µg/mL (≈ 11.7 µM). Compared with the last compound, the solubility kinetic is about 3.5-fold lower.
